The source of these data is patent US11685729B2, “C5a receptor modulators” (IDORSIA PHARMACEUTICALS LTD., priority 2018, dated 2023).

The target in this experiment is C5AR1 (Homo sapiens (Human), UniProt P21730). In words: In vitro assay: PathHunter beta-arrestin antagonist assay in CHO-K1 C5AR1 beta-arrestin cell line, stimulated with C5a agonist. To be noted: read-out: C5aR IC50; CHO-K1 C5AR1 beta-arrestin cell line; 1-10 nM C5a agonist; geometric mean values.
Sequence of C5AR1 (P21730 whole entry): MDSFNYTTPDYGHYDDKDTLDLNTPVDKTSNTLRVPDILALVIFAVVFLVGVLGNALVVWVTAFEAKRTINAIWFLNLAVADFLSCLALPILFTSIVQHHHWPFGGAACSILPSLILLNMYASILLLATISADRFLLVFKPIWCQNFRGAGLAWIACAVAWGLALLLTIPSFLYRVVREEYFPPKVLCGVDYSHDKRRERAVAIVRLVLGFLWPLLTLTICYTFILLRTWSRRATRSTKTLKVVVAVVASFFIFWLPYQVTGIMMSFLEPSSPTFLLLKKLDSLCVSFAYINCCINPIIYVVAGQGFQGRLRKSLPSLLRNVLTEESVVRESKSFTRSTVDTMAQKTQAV
Protocol: 5 μl Antagonist at 6-fold end concentration or DMSO control is added to assay medium and subsequently 5 μl 1-10 nM C5a agonist at 6 fold end concentration. Cells are centrifuged for 1 min at 1000 rpm and incubated for 1.5 hour in at 37° C. Plates are equilibrated at room temperature for several minutes before adding 12 μI/well Detection Reagent (PathHunter Detection Kit, DiscoverX, Cat #93-0001). Plates are centrifuged for 1 min at 1000 rpm and incubated for 45 minutes at RT before being measured on a Fluostar Optima, BMG Labtech. IC50 values are calculated from a serial dilution range of antagonist using inhouse software and given in nmol/l.
The calculated IC50 values may fluctuate depending on the daily cellular assay performance. […] Average IC50 values from several measurements are given as geometric mean values.
A word on the IC50: it is the concentration that gives 50% inhibition. Regarding `COc1cccc(C)c1N1CCC(N2Cc3cccc(OC)c3N(Cc3ccccc3C(F)(F)F)C2=O)CC1` [Example 25, 8-Methoxy-3-[1-(2-methoxy-6-methyl-phenyl)-piperidin-4-yl]-1-(2-trifluoromethyl-benzyl)-3,4-dihydro-1H-quinazolin-2-one], the IC50 was found to be 497 nM.
For `Cc1cccc(F)c1N1CC[C@@H](N2Cc3ccccc3N(Cc3ccccc3C(F)(F)F)C2=O)C1` [Example 26, 3-[(R)-1-(2-Fluoro-6-methyl-phenyl)-pyrrolidin-3-yl]-1-(2-trifluoromethyl-benzyl)-3,4-dihydro-1H-quinazolin-2-one], the half-maximal inhibitory concentration (IC50) amounted to 35 nM.
As for `COc1cccc(C)c1N1CC[C@@H](N2Cc3ccccc3N(Cc3ccccc3C(F)(F)F)C2=O)C1` [Example 27, 3-[(R)-1-(2-Methoxy-6-methyl-phenyl)-pyrrolidin-3-yl]-1-(2-trifluoromethyl-benzyl)-3,4-dihydro-1H-quinazolin-2-one], the half-maximal inhibitory concentration (IC50) stood at 37 nM.
Then `Cc1ccnc(C)c1N1CCC(N2Cc3ccccc3N(Cc3ccccc3C(F)(F)F)C2=O)CC1` [Example 28, 3-(2′,4′-Dimethyl-3,4,5,6-tetrahydro-2H-[1,3′]bipyridinyl-4-yl)-1-(2-trifluoromethyl-benzyl)-3,4-dihydro-1H-quinazolin-2-one], with 287 nM; and `COc1nccc(C)c1N1CCC(N2Cc3ccccc3N(Cc3ccccc3C(F)(F)F)C2=O)CC1` [Example 29, 3-(2′-Methoxy-4′-methyl-3,4,5,6-tetrahydro-2H-[1,3′]bipyridinyl-4-yl)-1-(2-trifluoromethyl-benzyl)-3,4-dihydro-1H-quinazolin-2-one], with 35 nM.
Then `Cc1ccnc(F)c1N1CCC(N2Cc3ccccc3N(Cc3ccccc3C(F)(F)F)C2=O)CC1` [Example 30, 3-(2′-Fluoro-4′-methyl-3,4,5,6-tetrahydro-2H-[1,3′]bipyridinyl-4-yl)-1-(2-trifluoromethyl-benzyl)-3,4-dihydro-1H-quinazolin-2-one], with 45 nM.
In the case of `COc1nccc(C)c1N1CC[C@@H](N2Cc3ccccc3N(Cc3ccccc3C(F)(F)F)C2=O)C1` [Example 31, 3-[(R)-1-(2-Methoxy-4-methyl-pyridin-3-yl)-pyrrolidin-3-yl]-1-(2-trifluoromethyl-benzyl)-3,4-dihydro-1H-quinazolin-2-one], the IC50 stood at 37 nM.
As to `Cc1ccnc(C)c1N1CC[C@@H](N2Cc3ccccc3N(Cc3ccccc3C(F)(F)F)C2=O)C1` [Example 32, 3-[(R)-1-(2,4-Dimethyl-pyridin-3-yl)-pyrrolidin-3-yl]-1-(2-trifluoromethyl-benzyl)-3,4-dihydro-1H-quinazolin-2-one], the IC50 was 280 nM.
Next, `Cc1ccnc(F)c1N1CC[C@@H](N2Cc3ccccc3N(Cc3ccccc3C(F)(F)F)C2=O)C1` [Example 33, 3-[(R)-1-(2-Fluoro-4-methyl-pyridin-3-yl)-pyrrolidin-3-yl]-1-(2-trifluoromethyl-benzyl)-3,4-dihydro-1H-quinazolin-2-one]: 43 nM; `COc1ccccc1CN1C(=O)N([C@@H]2CCN(c3c(C)cccc3C)C2)Cc2ccccc21` [Example 34, 3-[(R)-1-(2,6-Dimethyl-phenyl)-pyrrolidin-3-yl]-1-(2-methoxy-benzyl)-3,4-dihydro-1H-quinazolin-2-one]: 116 nM.
For `COc1ccccc1CN1C(=O)N([C@@H]2CCN(c3c(C)cccc3F)C2)Cc2ccccc21` [Example 35, 3-[(R)-1-(2-Fluoro-6-methyl-phenyl)-pyrrolidin-3-yl]-1-(2-methoxy-benzyl)-3,4-dihydro-1H-quinazolin-2-one], the IC50 was determined as 43 nM.
`COc1ccccc1CN1C(=O)N(C2CCN(c3c(C)cccc3C)CC2)Cc2ccccc21` [Example 36, 3-[1-(2,6-Dimethyl-phenyl)-piperidin-4-yl]-1-(2-methoxy-benzyl)-3,4-dihydro-1H-quinazolin-2-one]: the IC50 is 199 nM.
Then `COc1ccccc1CN1C(=O)N(C2CCN(c3c(C)cccc3F)CC2)Cc2ccccc21` [Example 37, 3-[1-(2-Fluoro-6-methyl-phenyl)-piperidin-4-yl]-1-(2-methoxy-benzyl)-3,4-dihydro-1H-quinazolin-2-one], with 138 nM; and `N#Cc1cccc(F)c1N1CCC(N2Cc3ccccc3N(Cc3nccnc3C(F)(F)F)C2=O)CC1` [Example 38, 3-Fluoro-2-{4-[2-oxo-1-(3-trifluoromethyl-pyrazin-2-ylmethyl)-1,4-dihydro-2H-quinazolin-3-yl]-piperidin-1-yl}-benzonitrile], with 211 nM.
Next, `COc1nccnc1CN1C(=O)N(C2CCN(c3c(F)cccc3C#N)CC2)Cc2ccccc21` [Example 39, 3-Fluoro-2-{4-[1-(3-methoxy-pyrazin-2-ylmethyl)-2-oxo-1,4-dihydro-2H-quinazolin-3-yl]-piperidin-1-yl}-benzonitrile]: 1050 nM; `COc1ccccc1C(C)N1C(=O)N(C2CCN(c3c(C)cccc3F)CC2)Cc2ccccc21` (centres unmarked) [Example 40, 3-[1-(2-Fluoro-6-methyl-phenyl)-piperidin-4-yl]-1-[1-(2-methoxy-phenyl)-ethyl]-3,4-dihydro-1H-quinazolin-2-one]: 135 nM; `Cc1cccc(F)c1N1CCC(N2Cc3ccnnc3N(Cc3ccccc3C(F)(F)F)C2=O)CC1` [Example 41, 6-[1-(2-Fluoro-6-methyl-phenyl)-piperidin-4-yl]-8-(2-trifluoromethyl-benzyl)-5,8-dihydro-6H-pyrimido[4,5-c]pyridazin-7-one]: 109 nM.
Next, `Cc1cccc(F)c1N1CCC(N2Cc3ccccc3N(Cc3nccnc3C(F)(F)F)C2=O)CC1` [Example 42, 3-[1-(2-Fluoro-6-methyl-phenyl)-piperidin-4-yl]-1-(3-trifluoromethyl-pyrazin-2-ylmethyl)-3,4-dihydro-1H-quinazolin-2-one]: 63 nM.
In the case of `COc1nccnc1CN1C(=O)N(C2CCN(c3c(C)cccc3F)CC2)Cc2ccccc21` [Example 43, 3-[1-(2-Fluoro-6-methyl-phenyl)-piperidin-4-yl]-1-(3-methoxy-pyrazin-2-ylmethyl)-3,4-dihydro-1H-quinazolin-2-one], the concentration for half-maximal inhibition (IC50) is 299 nM.
Then `Cc1cccc(F)c1N1CCC(N2Cc3ccccc3N(Cc3ccccc3OC(C)C)C2=O)CC1` [Example 44, 3-[1-(2-Fluoro-6-methyl-phenyl)-piperidin-4-yl]-1-(2-isopropoxy-benzyl)-3,4-dihydro-1H-quinazolin-2-one], with 33 nM; and `Cc1cccc(F)c1N1CCC(N2Cc3ccccc3N(C(C)c3ccccc3C(F)(F)F)C2=O)CC1` (centres unmarked) [Example 45, 3-[1-(2-Fluoro-6-methyl-phenyl)-piperidin-4-yl]-1-[1-(2-trifluoromethyl-phenyl)-ethyl]-3,4-dihydro-1H-quinazolin-2-one], with 191 nM.
Consider `CCOc1ccccc1CN1C(=O)N(C2CCN(c3c(C)cccc3F)CC2)Cc2ccccc21` [Example 46, 1-(2-Ethoxy-benzyl)-3-[1-(2-fluoro-6-methyl-phenyl)-piperidin-4-yl]-3,4-dihydro-1H-quinazolin-2-one], for which the IC50 was 35 nM.
Consider `Cc1cccc(F)c1N1CCC(N2Cc3ccccc3N(Cc3ccccc3OCCN(C)C)C2=O)CC1` [Example 47, 1-[2-(2-Dimethylamino-ethoxy)-benzyl]-3-[1-(2-fluoro-6-methyl-phenyl)-piperidin-4-yl]-3,4-dihydro-1H-quinazolin-2-one], for which the IC50 worked out at 1660 nM.
